Results published in patent publication US7994113B2, “βGBP, compositions comprising βGBP, and related methods and uses thereof” (priority 2007, dated 2011).
Read-outs that look alike come from different tables or passages of the source.

Tests used:
activated T cells = conditions: Rabinovich et al., 1997, 1998, 1999; cited from earlier work
akt mRNA = assay: Northern blot analysis of akt mRNA; type: cell-based; conditions: for akt mRNA level: 30 nM Hu-r-βGBP
ERK = type: cell-based
[1] = system: MCF10A mammary ductal cells; assay: Growth rate and Annexin V apoptosis of naïve MCF10A cells; type: cell-based
[2] = system: MCF-7 breast cancer cells; assay: Growth rate of naïve MCF-7 cells; type: cell-based
[3] = system: breast cancer, ovarian cancer, oral cancer, prostate cancer and leukaemia cells; assay: Screen of pro-apoptotic responses to βGBP in a range of cancer types; type: cell-based
Description: As described above βGBP is known to inhibit growth and/or promote apoptosis in cells from a range of cancer types.
In breast cancer, ovarian cancer, oral cancer, prostate cancer and leukaemia cells tested for pro-apoptotic responses to βGBP, the effective dose in cell culture was 15-30 nM.

SW480 colon cancer cells = assay: Growth rate of SW480 colon cancer cells with Hu-r-βGBP; type: cell-based
Description: (§1) To confirm these observations three colon cancer cell lines were investigated, SW480, SW620 and LoVo. Cells were grown in culture and incubated with βGBP at varying concentrations. […] Concentrations as low as 1-2 nM have been observed as effective in inducing apoptosis (FIG. 6). It is possible that in some circumstances even lower concentrations of βGBP may be effective.
(§2) Cell culture: SW480, SW620 and LoVo colon cancer cells were grown in Leibowitz L-15 medium with 10% fetal bovine serum in sealed flasks at 37° C. Hu-r-βGBP was added 3 hrs after seeding cells at a concentration of 1 nM or 2 nM. Control cells were grown without βGBP.
(§3) Growth rates: Cell numbers were measured over a time course of 5 days. Cell numbers were assessed at 0, 1, 2, 3, 4, and 5 days for each cell type incubated in the presence of Hu-r-βGBP. Cell numbers were assessed in triplicate by counting in a haemocytometer as discussed above in Example 1 and compared with cell numbers for control cells grown without βGBP.

LoVo colon cancer cells = assay: Growth rate of LoVo colon cancer cells with Hu-r-βGBP; type: cell-based
Description: as §1, §2, §3

class IA PI3K = assay: PI3 kinase assay: immunoprecipitated enzyme from treated cells, PIP3 by competitive ELISA; type: cell-based; conditions: for PI3K activity: 30 nM Hu-r-βGBP
[4] = system: ST4 (Human malignant T cell leukaemia) cells; assay: ST4 tumour growth in SCID mice, subcutaneous βGBP; type: in vivo; conditions: SCID mice injected s.c. with 5×10^6 ST4 cells; Hu-r-βGBP s.c. day 1 to day 16
Description: 5×10^6 ST4 (Human malignant T cell leukaemia) cells were injected subcutaneously at day 0. Hu-r-βGBP was administered from day 1 to day 16 by subcutaneous injection.
Female SCID mice were housed under standard conditions. Mice were divided into four groups of four. At age 6 weeks 5×10^6 ST4 (Human malignant T cell leukaemia) cells were injected subcutaneously (day 0).
Hu-r-βGBP was obtained as described in Example 1.
βGBP was administered from day 1 to day 16 by individual daily subcutaneous injection. Each group of mice received a different dosage of βGBP. 0 ng/mouse (control), 20 ng/mouse, 200 ng/mouse or 400 ng/mouse
Tumour size was assessed at day 42 or day 90 by calliper measurement.

MCF-7^CTx cells = type: cell-based
[5] = system: BT474 breast cancer cells; assay: Growth rate and apoptosis of BT474 cells treated with Hu-r-βGBP; type: cell-based; conditions: Hu-r-βGBP 15 or 30 nM added at hour 3 after seeding
Description: (§4) Cell culture: BT474 cells were cultured in DMEM/F12 medium with 10% fetal calf serum (FCS) (Invitrogen, UK) and 20 μg/ml insulin (Sigma, UK); the SKBR3 cells were grown in DMEM medium (Invitrogen UK) plus 10% FCS. Cultures were incubated at 37° C. in a humidified atmosphere of 5% CO2 in air.
(§5) 1×10^5 cells were seeded per 25 cm^2 flask, or 3×10^5 per 75 cm^2 flask. Sufficient numbers of flasks were seeded in parallel to allow for individual flasks to be consumed in the process of monitoring cell numbers (i.e. growth rates), apoptosis, PI3K activity, akt mRNA levels, Akt protein levels and phosphorylated Akt (P-Akt) protein levels as discussed below. Unless otherwise indicated results correspond to one flask of cells.
(§6) Growth rates: Cells were removed from the flasks by trypsinisation and counted in a haemocytometer to assess cell numbers at time points of 1, 2, 3, 4, and 5 days for BT474 cells, SKBR3 cells, MCF10A^V12Ras cells and MCF10A^CTx cells. MCF10A cells were monitored at 1, 2, 3, and 4 days. Cell numbers were determined in triplicate. […]
(§7) Cytofluorimetry: Apoptosis was monitored using four criteria as outlined below. […]
(§8) Redistribution of plasma membrane phosphatidylserine was assessed using Annexin V-FITC (Pharmingen, San Diego, Calif.). […]
(§9) Caspase 3 activity was measured by cleavage of non fluorescent PhiPhiLux to a fluorescent product (OncoImmunin, Mass.). […]

MCF10A^V12Ras cells = assay: Growth rate and Annexin V apoptosis of MCF10A^V12Ras cells; type: cell-based; conditions: Hu-r-βGBP 15 or 30 nM added at hour 3
MCF10A^CTx cells = type: cell-based
SW620 colon cancer cells = assay: Growth rate of SW620 colon cancer cells with Hu-r-βGBP; type: cell-based
Description: as §1, §2, §3

Akt = assay: Western blot of phosphorylated (Ser473) Akt and total Akt protein; type: cell-based; conditions: 30 nM Hu-r-βGBP
Description: Western blot analysis: Cells were lysed in 50 mM Tris pH7.4. 150 mM NaCl, 1% TritonX-100, 1 mMPMSF, 2.5 μg/ml leupeptin, 1% aprotinin, 10 mM sodium fluoride, 1 mM sodium vanadate (Sigma, UK). 50 μg of protein were loaded onto 12% polyacrylamide gels. Phosphorylated Akt was detected using 1:1000 anti-phospho-Akt (Ser473) antibody (Cell Signalling Technology, Boston, Mass.) and total Akt1/2 protein was probed with 1:1000 anti-Akt1/2 (H136) (Santa Cruz, Santa Cruz, Calif.). Secondary antibodies conjugated to horseradish peroxidase (HRP) (GE Healthcare, UK) were used at 1:1000 dilution and visualised by enhanced chemiluminescence (GE Healthcare, UK). Actin (Sigma, UK) was used as a loading control.

[6] = system: SKBR3 breast cancer cells; assay: Growth rate and apoptosis of SKBR3 cells treated with Hu-r-βGBP; type: cell-based; conditions: Hu-r-βGBP 15 or 30 nM added at hour 3 after seeding
Description: as §4, §5, §6, §7, §8, §9

[7] = MCF10A, MCF10A^V12Ras and MCF10A^CTx cells

GAL-1: homodimers formed from βGBP, a complex with lectin-like characteristics
threshold concentration for apoptotic activity (activated T cells): 4 µg/mL

cholera toxin [reference compound]
akt gene expression (akt mRNA): accentuated akt gene expression
akt mRNA levels (akt mRNA): more markedly expressed
active ERK levels (ERK): raised active ERK levels
cell proliferation [1]: boosted
cell proliferation [2]: accelerated cell proliferation

βGBP: Human recombinant β-galactoside binding protein expressed in E. coli; negative cell cycle regulator, anti-proliferative cytokine
akt mRNA level (akt mRNA; BT474 and SKBR3 cells, within one day from addition): virtually undetectable
akt mRNA level (akt mRNA; [7]): virtual absence of akt mRNA
akt gene expression (akt mRNA; MCF-7^CTx cells, 20 nM Hu-r-βGBP): negated
effective dose in cell culture for pro-apoptotic responses [3]: 15 to 30 nM
concentration effective in inducing apoptosis (SW480 colon cancer cells; SW480 cells, Hu-r-βGBP added 3 hrs after seeding, 5 days): 1 to 2 nM
effective concentration relative to other cancer cell lines (times lower) (SW480 colon cancer cells; SW480 colon cancer cells versus other cancer cell lines): 15 to 30 times
concentration effective in inducing apoptosis (LoVo colon cancer cells; LoVo cells, Hu-r-βGBP added 3 hrs after seeding, 5 days): 1 to 2 nM
effective concentration relative to other cancer cell lines (times lower) (LoVo colon cancer cells; LoVo colon cancer cells versus other cancer cell lines): 15 to 30 times
PI3K activity (class IA PI3K; BT474 and SKBR3 cells, already present at hour six, maintained throughout observation): downregulation of PI3K activity
PI3K activity (class IA PI3K; MCF10A, MCF10A^V12Ras and MCF10A^CTx cells, delay from 6 to 24 hours with V12 Ras): brought down and maintained PI3K activity below basal levels
decrease of PI3K activity below basal levels at which akt gene expression was negated (class IA PI3K; MCF-7^CTx cells, 20 nM Hu-r-βGBP, 10 nM wortmannin or 20 nM LY294002 added at hour 3 from seeding): ~35%
ERK phosphorylation (ERK): no changes in ERK phosphorylation
appearance of tumours [4]: totally prevent the appearance of tumours
cell death in response to βGBP (MCF-7^CTx cells): succumbed to total death ahead of the naive counterparts
response of cell proliferation to βGBP ([1]; naïve MCF10A cells, Hu-r-βGBP 15 or 30 nM added at hour 3): minor effect
apoptosis after inhibition of PI3K activity and loss of akt gene function ([1]; naïve normal-like MCF10A cells, 30 nM Hu-r-βGBP, Annexin V at day three): did not lead to apoptosis
effect on cell replication and cell death [5]: virtually no effect on cell replication until, after 2-3 generation cycles, abrupt cell death was triggered
effect on cell growth ([2]; naïve MCF-7 cells, 20 nM Hu-r-βGBP added at hour 3): growth inhibitory effect
response of cell proliferation to βGBP (MCF10A^V12Ras cells): abrupt cell death after 2-3 cell replication cycles
response of cell proliferation to βGBP (MCF10A^CTx cells): abrupt cell death after 2-3 cell replication cycles
concentration effective in inducing apoptosis (SW620 colon cancer cells; SW620 cells, Hu-r-βGBP added 3 hrs after seeding, 5 days): 1 to 2 nM
effective concentration relative to other cancer cell lines (times lower) (SW620 colon cancer cells; SW620 colon cancer cells versus other cancer cell lines): 15 to 30 times
phosphorylated Akt and Akt protein (Akt; BT474 and SKBR3 cells, preceded the apoptotic process): loss of phosphorylated Akt, and loss of Akt protein
Akt function (phosphorylated Akt and total Akt protein) (Akt; [7]): loss of Akt function
effect on cell replication and cell death [6]: virtually no effect on cell replication until, after 2-3 generation cycles, abrupt cell death was triggered
